Measurements as given in patent publication US9629941B2, “Hydrogel coated scaffold” (CORTICALIS AS, priority 2012, dated 2017).
Where a SMILES comes first, the peptide text is derived from it.

Key:
[1] = Peptide release profile from 2% alginate hydrogel (fluorescence spectroscopy); assay type: physicochemical
Procedure: To study the peptide release profile, P2 was labeled with FITC. The release of peptide contained into the 2% alginate hydrogel (50 μg/ml) was quantified by fluorescence spectroscopy. First, alginate hydrogels were washed with culture media to remove the excess of CaCl2. Then, 750 μl of cell culture media were added onto peptide loaded alginate hydrogel. The samples were incubated at 37° C. and 5% CO2 for 21 days and cell culture media was changed twice a week. At prefixed time points (24 h, 4 d, 7 d, 11 d, 14 d, 18 d and 21 d), supernatants were collected and analyzed by fluorescence spectroscopy (λ ex 490 nm and λ em 525 nm) to determine the amount of peptide released to the media. The amount of peptide released during the washing step was also measured. The experiment was performed three times, and each sample analyzed in triplicate.
Relative fluorescence units were correlated with the amount of peptide released using a linear standard curve for each time point.

MC3T3-E1 cells [2] = experiment: Cell viability: LDH activity in culture media of cells on alginate hydrogels; assay type: cell-based, mouse; details: 24 h; 50 μg/ml in 2% alginate hydrogel
Procedure: (§1) The mouse osteoblastic cell line MC3T3-E1 (DSMZ, Braunschweig, Germany) was maintained as previously described (Tiainen H et al., 2011). Before seeding, 24-well culture plates containing crosslinked alginate hydrogels were washed with 750 μl of culture media to remove the excess of CaCl2. After evaluation of the efficiency of cell adhesion on 2% alginate gel using different cell densities, for the final experiments, cells were seeded at a density of 100 000 cells/well. Media was refreshed twice a week. Culture media was collected 24 h after seeding to study cell viability. Cells were harvested at days 14 and 21 to analyze gene expression of adhesion and osteogenic-related markers using real-time RT-PCR. Cultures were routinely observed using light microscopy (Leica DMIRB, Leica Microsystems Wetzlar GmbH, Germany).
The LDH activity determined in the culture media after 24 h was taken as an indicator of membrane leakage or cell lysis. The activity of the cytosolic enzyme was estimated as previously described (Rupert M at al., 2011).

MC3T3-E1 cells [3] = experiment: Gene expression of cell adhesion and osteoblast markers by real-time RT-PCR, cells on alginate hydrogels; assay type: cell-based, mouse; details: 50 μg/ml in 2% alginate hydrogel
Procedure: as §1
Total RNA was isolated using Tripure® (Roche Diagnostics, Mannheim, Germany), according to the manufacturer's protocol. Total RNA was quantified at 260 nm using a Nanodrop spectrophotometer (NanoDrop Technologies, Wilmington, Del., USA).
The same amount of RNA (350 ng) was reverse transcribed to cDNA using high capacity RNA-to-cDNA kit (Applied Biosystems, Foster City, Calif.), according to the protocol of the supplier. Aliquots of each cDNA were frozen (−20° C.) until the PCR reactions were carried out.
Real-time PCR was performed in the Lightcycler 480® (Roche Diagnostics, Mannheim, Germany) using SYBR green detection. Real-time PCR was done for two reference genes (18SrRNA and glyceraldehyde-3-phosphate dehydrogenase (GAPDH)) and ten target genes (integrin alpha 8 (Itga8), integrin beta1 (Itgb1), integrin beta 3 (Itgb3), fibronectin 1 (Fn11), bone morphogenetic protein 2 (Bmp2), collagen type I (Coll-I), bone sialoprotein (Bsp), alkaline phosphatase (Alp), osteocalcin (Oc) and osteopontin (Opn)).
The primer sequences are detailed in Table 2. Reaction conditions and relative quantification have been done as previously described (Tiainen H et al., 2011).

[4] = Peptide 2 release profile from TiO2 scaffolds coated with 2% alginate gel (UV-Vis 206 nm); assay type: physicochemical; details: P2-alginate-coated TiO2 scaffolds, distilled water, 37° C.
Procedure: TiO2 scaffolds coated with 2% alginate containing peptide 2 (P2-alginate-coated scaffold) were placed into 48-well plates (Nunc GmBh & Co. Kg, Langenselbold, Germany) containing 1 ml distilled water (pH 7.4). In order to mimic cell culture conditions, the samples were agitated on an orbital shaker at 200 rpm (IKA® Schüttler MTS 2, Germany) for 6 h at 37° C. and in humidity conditions (using a distilled water container). Then, samples were maintained at 37° C. in a humidified atmosphere for up to 21 days. At prefixed time points (2d, 5d, 7d, 9d, 12d, 14d, 16d, 19d and 21d), distilled water was collected and fresh distilled water was added into each well. Sample absorbances were analyzed by UV-Vis spectrophotometer (PerkinElmer® Lambda 25 UV/Vis Systems, USA) at a wavelength of 206 nm to determine the amount of peptide released. In parallel, […] scaffolds coated with one layer of 2% alginate gel were used as control to subtract absorbance values obtained from degradation products from alginate.
Relative absorbance units were correlated with the amount of peptide released using a linear standard curve for each time point and the cumulative P2 released was then calculated. The experiment was performed in triplicate.

[5] = tested on: primary human osteoblasts; experiment: Cytotoxicity assay (LDH activity in culture medium), SIM containing scaffolds; assay type: cell-based; details: for LDH activity compared to alginate-coated scaffolds without SIM: 14-day period
Procedure: Cells from passages 7-9 were seeded on scaffolds at a density of 400.000 cells/ml. […] Scaffolds soaked with culture medium were placed in 48-well culture plates. […] The culture medium was replaced every other day. Collected medium was saved for use in cytotoxicity, alkaline phosphatase (ALP) activity and protein expression assays.

[6] = FITC-labeled P2, 50 μg/ml in 2% alginate hydrogel, culture media, 37° C.

Compound | Expression of Opn (MC3T3-E1 cells [3]; 14 days, vs control) | Fn1 mRNA levels (MC3T3-E1 cells [3]; 14 days, vs control) | Itgb1 mRNA levels (MC3T3-E1 cells [3]; 14 days, vs control) | Itgb3 mRNA levels (MC3T3-E1 cells [3]; 14 days, vs control) | Fn1 mRNA levels (MC3T3-E1 cells [3]; 21 days) | Itgb3 mRNA levels (MC3T3-E1 cells [3]; 21 days) | ALP mRNA levels (MC3T3-E1 cells [3]; 21 days, vs control) | Oc mRNA levels (MC3T3-E1 cells [3]; 21 days, vs control) | other results
CC(C)C[C@H](NC(=O)[C@@H]1CCCN1)C(=O)N[C@H](C(=O)N1CCC[C@H]1C(=O)N[C@@H](CO)C(=O)N[C@@H](CCC(N)=O)C(=O)N1CCC[C@H]1C(=O)N[C@@H](CC(C)C)C(=O)N[C@H](C(=O)N1CCC[C@H]1C(=O)N[C@@H](CO)C(=O)N[C@@H](CCC(N)=O)C(=O)N1CCC[C@H]1C(=O)N[C@@H](CC(C)C)C(=O)N[C@H](C(=O)N1CCC[C@H]1C(=O)N[C@@H](CO)C(=O)N[C@@H](CCC(N)=O)C(=O)N1CCC[C@H]1C(=O)N[C@@H](CCC(N)=O)C(=O)N1CCC[C@H]1C(=O)N1CCC[C@H]1C(=O)N[C@@H](CC(C)C)C(=O)N1CCC[C@H]1C(=O)N1CCC[C@H]1C(=O)O)C(C)C)C(C)C)C(C)C [P2] (H-PLVPSQPLVPSQPLVPSQPQPPLPP-OH) | decreased significantly | decreased significantly | significantly decreased | decreased significantly | no differences were observed | no differences were observed | significantly decreased |  | total peptide theoretically contained in the alginate hydrogel not released after 21 days ([1]; FITC-labeled P2, 50 μg/ml in 2% alginate hydrogel, 37° C.): 5.6%; burst release of the peptide during the first 24 h of incubation [1, 6]: 54.67%; peptide slowly released up to 11 days [1, 6]: 25.8%; loaded peptide released during the washing step ([1]; washing of alginate hydrogels with culture media to remove excess CaCl2): 12.7%; cell viability compared to EMD (MC3T3-E1 cells [2]): significantly increased; Bmp2 relative mRNA levels (MC3T3-E1 cells [3]; 21 days, vs EMD): decreased; amount of peptide released after 5 days [4]: 9.4 % of the cumulative amount rel; burst release of the peptide during the first 2 days of incubation [4]: 42.8 % of the cumulative amount of P2 released after 21 days
CCC(C)(C)C(=O)O[C@H]1C[C@@H](C)C=C2C=C[C@H](C)[C@H](CC[C@@H]3C[C@@H](O)CC(=O)O3)[C@H]21 [SIM, simvastatin] |  |  |  |  |  |  |  |  | LDH activity compared to alginate-coated scaffolds without SIM ([5]; 10 nM SIM): Neither of the SIM concentrations caused a significant increase; LDH activity compared to alginate-coated scaffolds without SIM ([5]; 10 μM SIM): Neither of the SIM concentrations caused a significant increase; LDH activity, scaffolds with 10 μM SIM compared to scaffolds with 10 nM SIM ([5]; throughout the 14-day period): higher LDH activity
PHQPMQPQPPVHPMQPLPPQPPLPP (Synthetic biomineralizing peptide) [P6, synthetic proline-rich peptide] | decreased significantly | decreased significantly | significantly decreased | decreased significantly | no differences were observed | no differences were observed | significantly decreased | increased | Bmp2 relative mRNA levels (MC3T3-E1 cells [3]; 14 days, sentence ends 'compared to EMD'): increased significantly; ALP mRNA levels (MC3T3-E1 cells [3]; 14 days, vs control): significantly decreased; Itgb1 mRNA levels (MC3T3-E1 cells [3]; 21 days, vs EMD): reduced significantly
PLVPSSPLVPCCPLVPCCPSPPLPP (Synthetic biomineralizing peptide) [P5, synthetic proline-rich peptide] |  |  |  |  |  |  |  | increased | toxic effects compared to EMD and to untreated alginate gel (MC3T3-E1 cells [2]): significantly lower toxic effects; Itga8 mRNA expression (MC3T3-E1 cells [3]; 21 days, vs control alginate hydrogel): increased
